Patent publication US20240199605A1, “SMALL MOLECULAR INHIBITORS OF NF-kB INDUCING KINASE” (Janssen Pharmaceutica NV, priority 2019, published 2024)

The molecules below were run on p-IKKα levels in L363 (NIK translocated multiple myeloma) cells (assay: Effect of compounds on p-IKKα levels in L363 cells (AlphaLISA SureFire Ultra)). Settings: Homo sapiens, L-363, 6 h, BAFF stimulated, MG132, 6 h, average of values, read-out: Assay 2 IC50.
Format: cell-based, human
Description: Effect of Compounds on p-IKKα Levels in L363 (NIK Translocated Multiple Myeloma) Cells
All compounds tested were dissolved and serially diluted in DMSO, 1:3 dilution for 11 points in an Echo compatible plate. 100% DMSO was added to columns 12 and 24 of the plate to serve as high and low signal controls. This compound plate was used to spot 20 nL of compound or DMSO into a Greiner 384 well TC plate (781080). The final DMSO concentration was 0.3% (v/v) in cell assays. Human L363 cells (ATCC) were cultured in RPM11640 medium supplemented with GlutaMax, non-essential amino acids, sodium pyruvate and 10% fetal bovine serum. Cells were routinely maintained at densities of […] at 37° C. in a humidified 5% CO2 atmosphere incubator. Cells were passaged twice a week splitting back to obtain the low density. The day before the assay, cells were washed twice in HBSS (Hank's Balanced Salt Solution), resuspended in Dulbecco's Modified Eagle Medium (DMEM)+0.5% IgG and protease free BSA (Jackson Immuno Research Laboratories), +/−250 ng/ml recombinant human B-cell activating factor (BAFF/BLyS/TNFSF13B) and incubated overnight at 37° C. in a humidified 5% CO2 atmosphere (bulk stimulation with or without BAFF). The next day, the cell concentration was adjusted to 1×10^7 cells/ml in DMEM+/−250 ng/ml BAFF+/−10 μM MG132 and plated at 10 μl/well into compound or DMSO spotted 384 well TC plates. Seeded cells were incubated at 37° C. in a humidified 5% CO2 atmosphere for 6 h. After 6 h, the plates were removed from the incubator and cell lysis was achieved by the addition of 2.5 μl 5× lysis buffer containing protease and phosphatase inhibitors, followed by shaking on a plate shaker at room temperature for 15 min. At the end of this incubation, lysed cells were sequentially treated and incubated with acceptor and donor bead mixes according to the manufacturer's protocol for a 1 plate/2-incubation suspension cell assay (AlphaLISA SureFire Ultra p-IKKa (Ser 176/180) Assay Kit (Perkin Elmer). Plates were read using an EnVision® Multilabel Plate Reader (Perkin Elmer). Within an experiment, a concentration response curve for each compound was run in duplicate. The signal obtained in the test wells was normalized using high signal (BAFF stimulated cells, DMSO, MG132) and low signal (unstimulated cells, DMSO) controls. To determine the IC50, a sigmoidal curve was fitted to the plot of % inhibition versus Log10 compound concentration.

Point of comparison: [2H]c1nc(N)c2nc(-c3cccc(C#C[C@@]4(O)C[C@@H](C)N(C)C4=O)c3)ccc2n1 [Example 264, (3S,5R)-3-((3-(4-Aminopyrido[3,2-d]pyrimidin-6-yl-2-d)phenyl)ethynyl)-3-hydroxy-1,5-dimethylpyrrolidin-2-one], IC50 660 nM. Against it:
- CN1CC[C@@](O)(C#Cc2cccc(-c3ccc4cnnc(N)c4c3)c2)C1=O [Example 96, (R)-3-[2-[3-(4-Aminophthalazin-6-yl)phenyl]ethynyl]-3-hydroxy-1-methyl-pyrrolidin-2-one] — higher, > 5000 nM
- Cc1c(C#C[C@]2(O)CCN(C)C2=O)cccc1-c1ncc2ccnc(N)c2n1 [Example 41, (R)-3-((3-(8-Aminopyrido[3,4-d]pyrimidin-2-yl)-2-methylphenyl)ethynyl)-3-hydroxy-1-methylpyrrolidin-2-one] — higher, > 5000 nM
- Cc1nc(N)c2nc(-c3cccc(C#C[C@]4(O)CCCN(C)C4=O)c3)ccc2n1 [Example 187, (R)-3-((3-(4-Amino-2-methylpyrido[3,2-d]pyrimidin-6-yl)phenyl)ethynyl)-3-hydroxy-1-methylpiperidin-2-one] — 3.5-fold lower, 190 nM
- [2H]c1nc(N)c2nc(-c3cccc(C#C[C@@]4(O)C[C@H](C)N(C)C4=O)c3)ccc2n1 [Example 263, (3S,5S)-3-((3-(4-Aminopyrido[3,2-d]pyrimidin-6-yl-2-d)phenyl)ethynyl)-3-hydroxy-1,5-dimethylpyrrolidin-2-one] — 6.6-fold higher, 4350 nM
- CN1CC[C@@](O)(C#Cc2cccc(-c3ccc4ncncc4n3)c2)C1=O [Example 223] — higher, > 5000 nM
- Cc1cc(C#C[C@]2(O)CCN(C)C2=O)cc(-c2nc3c(N)ncnc3s2)c1 [Example 153, (R)-3-((3-(7-Aminothiazolo[5,4-d]pyrimidin-2-yl)-5-methylphenyl)ethynyl)-3-hydroxy-1-methylpyrrolidin-2-one] — 14-fold lower, 47 nM
- CC(=O)Nc1ncnc2ccc(-c3cccc(C#C[C@]4(O)CCN(C)C4=O)c3)nc12 [Example 238, (R)—N-(6-(3-((3-Hydroxy-1-methyl-2-oxopyrrolidin-3-yl)ethynyl)phenyl)pyrido[3,2-d]pyrimidin-4-yl)acetamide] — 9-fold lower, 73 nM
- [2H]c1nc(N)c2nc(-c3cccc(C#C[C@@]4(O)CCCN(C)C4=O)c3)ccc2n1 [Example 199, (S)-3-((3-(4-Aminopyrido[3,2-d]pyrimidin-6-yl-2-d)phenyl)ethynyl)-3-hydroxy-1-methylpiperidin-2-one] — higher, > 5000 nM
- CN1CC[C@@](O)(C#Cc2cccc(-c3nc4c(N)nccc4[nH]3)c2)C1=O [Example 59, (R)-3-[2-[3-(4-Amino-1H-imidazo[4,5-c]pyridin-2-yl)phenyl]ethynyl]-3-hydroxy-1-methyl-pyrrolidin-2-one] — higher, > 5000 nM
- [2H]c1nc(N)c2nc(-c3cccc(C#C[C@@]4(O)CCN(C)C4=O)c3)ccc2n1 [Example 9, (S)-3-((3-(4-Aminopyrido[3,2-d]pyrimidin-6-yl-2-d)phenyl)ethynyl)-3-hydroxy-1-methylpyrrolidin-2-one] — within 1.5-fold, 670 nM
- COC1CN(c2ncnc3ccc(-c4cccc(C#C[C@]5(O)CCN(C)C5=O)c4)nc23)C1 [Example 230, (R)-3-Hydroxy-3-((3-(4-(3-methoxyazetidin-1-yl)pyrido[3,2-d]pyrimidin-6-yl)phenyl)ethynyl)-1-methylpyrrolidin-2-one] — 1.9-fold lower, 350 nM
- [2H]c1nc(N)c2nc(-c3cccc(C#C[C@]4(O)CCN(C)C4=O)c3)ccc2n1 [Example 8, (R)-3-((3-(4-Aminopyrido[3,2-d]pyrimidin-6-yl-2-d)phenyl)ethynyl)-3-hydroxy-1-methylpyrrolidin-2-one] — 200-fold lower, 3.3 nM
- CN1CC[C@@](O)(C#Cc2cccc(-c3ccc4ncnc(N)c4n3)c2)C1=O [Example 12, (R)-3-((3-(4-Aminopyrido[3,2-d]pyrimidin-6-yl)phenyl)ethynyl)-3-hydroxy-1-methylpyrrolidin-2-one] — 220-fold lower, 3 nM
- [2H]c1nc(NC(C)=O)c2nc(-c3cccc(C#C[C@]4(O)CCN(C)C4=O)c3)ccc2n1 [Example 259, (R)—N-(6-(3-((3-Hydroxy-1-methyl-2-oxopyrrolidin-3-yl)ethynyl)phenyl)pyrido[3,2-d]pyrimidin-4-yl-2-d)acetamide] — 10-fold lower, 65 nM
- [2H]c1nc(NS(C)(=O)=O)c2nc(-c3cccc(C#C[C@]4(O)CCN(C)C4=O)c3)ccc2n1 [Example 269, (R)—N-(6-(3-((3-Hydroxy-1-methyl-2-oxopyrrolidin-3-yl)ethynyl)phenyl)pyrido[3,2-d]pyrimidin-4-yl-2-d)methanesulfonamide] — 5.8-fold higher, 3850 nM
- [2H]c1nc(N)c2nc(-c3cccc(C#C[C@]4(O)C[C@@H](C)N(C)C4=O)c3)ccc2n1 [Example 261, (3R,5R)-3-((3-(4-Aminopyrido[3,2-d]pyrimidin-6-yl-2-d)phenyl)ethynyl)-3-hydroxy-1,5-dimethylpyrrolidin-2-one] — 86-fold lower, 7.7 nM
- [2H]c1nc(N)c2nc(-c3cccc(C#C[C@]4(O)C[C@H](C)N(C)C4=O)c3)ccc2n1 [Example 262, (3R,5S)-3-((3-(4-Aminopyrido[3,2-d]pyrimidin-6-yl-2-d)phenyl)ethynyl)-3-hydroxy-1,5-dimethylpyrrolidin-2-one] — 3-fold lower, 220 nM

The molecules below were run against recombinant human NF-kappaB-inducing kinase (NIK/MAP3K14) (Homo sapiens (Human), UniProt Q99558) (assay: Inhibition of auto-phosphorylation of recombinant human NIK/MAP3K14 (AlphaScreen)). Settings: NIK auto-phosphorylation, 5 μM ATP, 1 nM NIK, 2 h at 25° C.; average of values.
Format: biochemical
Description: Inhibition of auto-phosphorylation of recombinant human NF-kappaB-inducing kinase (NIK/MAP3K14) activity (AlphaScreen®)
NIK/MAP3K14 auto-phosphorylation activity was measured using the AlphaScreen® (αscreen) format (Perkin Elmer). All compounds tested were dissolved in dimethyl sulfoxide (DMSO) and further dilutions were made in assay buffer. The final DMSO concentration was 0.7% (v/v) in assays. The assay buffer was 50 mM Tris pH 7.5 containing 1 mM EGTA (ethylene glycol tetraacetic acid), 1 mM DTT (dithiothreitol), 0.1 mM Na3VO4, 5 mM MgCl2, and 0.01% Tween® 20. The assays were carried out in 384 well Proxiplates (Perkin Elmer). The incubations consisted of the compound, 5 μM Adenosine-5′-triphosphate (ATP), and 1 nM NIK/MAP3K14. Incubations were initiated by the addition of GST-tagged NIK/MAP3K14 enzyme, carried out for 2 h at 25° C. and terminated by addition of stop buffer containing anti-phospho-IKK Ser176/180 antibody. Protein A Acceptor and Glutathione-Donor beads were added before reading using an EnVision® Multilabel Plate Reader (Perkin Elmer). […] IC50's were determined by fitting a sigmoidal curve to % inhibition of control versus Log10 compound concentration.

recombinant human NF-kappaB-inducing kinase (NIK/MAP3K14), sequence (Q99558 whole entry): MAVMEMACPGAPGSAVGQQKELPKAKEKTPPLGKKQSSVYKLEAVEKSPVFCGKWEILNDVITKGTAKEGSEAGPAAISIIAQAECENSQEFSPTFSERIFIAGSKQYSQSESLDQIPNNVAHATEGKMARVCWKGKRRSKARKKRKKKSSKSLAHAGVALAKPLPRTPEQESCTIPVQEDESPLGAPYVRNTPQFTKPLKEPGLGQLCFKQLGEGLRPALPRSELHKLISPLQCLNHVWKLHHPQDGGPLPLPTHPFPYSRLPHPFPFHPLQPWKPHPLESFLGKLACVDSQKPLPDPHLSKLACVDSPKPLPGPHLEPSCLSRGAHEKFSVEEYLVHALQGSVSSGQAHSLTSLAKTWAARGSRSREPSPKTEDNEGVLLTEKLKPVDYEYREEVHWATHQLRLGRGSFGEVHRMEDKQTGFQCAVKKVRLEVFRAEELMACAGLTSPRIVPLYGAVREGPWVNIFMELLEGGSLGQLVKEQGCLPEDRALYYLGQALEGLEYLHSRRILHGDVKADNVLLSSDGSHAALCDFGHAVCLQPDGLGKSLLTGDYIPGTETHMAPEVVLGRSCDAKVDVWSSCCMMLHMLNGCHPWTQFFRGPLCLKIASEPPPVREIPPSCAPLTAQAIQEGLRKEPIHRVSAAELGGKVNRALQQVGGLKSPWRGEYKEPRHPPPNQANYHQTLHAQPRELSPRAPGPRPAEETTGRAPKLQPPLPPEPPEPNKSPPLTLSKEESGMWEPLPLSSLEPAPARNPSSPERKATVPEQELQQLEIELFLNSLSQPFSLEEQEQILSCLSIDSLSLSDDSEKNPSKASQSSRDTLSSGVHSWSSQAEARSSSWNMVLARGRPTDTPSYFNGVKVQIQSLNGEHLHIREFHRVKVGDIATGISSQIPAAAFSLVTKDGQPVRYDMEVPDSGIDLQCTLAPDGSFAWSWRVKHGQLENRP

Point of comparison: Cc1ccc(C#C[C@]2(O)C[C@@H](C)N(C)C2=O)cc1-c1nc2c(N)ncnc2s1 [Example 319, (3R,5R)-3-((3-(7-Aminothiazolo[5,4-d]pyrimidin-2-yl)-4-methylphenyl)ethynyl)-3-hydroxy-1,5-dimethylpyrrolidin-2-one], IC50 1.5 nM. Against it:
- CN1CC[C@@](O)(C#Cc2cccc(-c3ccc4cnnc(N)c4c3)c2)C1=O [Example 96, (R)-3-[2-[3-(4-Aminophthalazin-6-yl)phenyl]ethynyl]-3-hydroxy-1-methyl-pyrrolidin-2-one] — 19-fold higher, 29 nM
- Cc1c(C#C[C@]2(O)CCN(C)C2=O)cccc1-c1ncc2ccnc(N)c2n1 [Example 41, (R)-3-((3-(8-Aminopyrido[3,4-d]pyrimidin-2-yl)-2-methylphenyl)ethynyl)-3-hydroxy-1-methylpyrrolidin-2-one] — 45-fold higher, 68 nM
- Cc1nc(N)c2nc(-c3cccc(C#C[C@]4(O)CCCN(C)C4=O)c3)ccc2n1 [Example 187, (R)-3-((3-(4-Amino-2-methylpyrido[3,2-d]pyrimidin-6-yl)phenyl)ethynyl)-3-hydroxy-1-methylpiperidin-2-one] — 2.5-fold higher, 3.8 nM
- CN1CC[C@@](O)(C#Cc2cccc(-c3cc(NCC(F)(F)F)c4ncnc(N)c4n3)c2)C1=O [Example 317, (R)-3-((3-(4-Amino-8-((2,2,2-trifluoroethyl)amino)pyrido[3,2-d]pyrimidin-6-yl)phenyl)ethynyl)-3-hydroxy-1-methylpyrrolidin-2-one] — 2.5-fold lower, 0.6 nM
- Cc1cc2cnc(-c3cccc(C#C[C@]4(O)CCN(C)C4=O)c3)nc2c(N)n1 [Example 44, (R)-3-((3-(8-Amino-6-methylpyrido[3,4-d]pyrimidin-2-yl)phenyl)ethynyl)-3-hydroxy-1-methylpyrrolidin-2-one] — 29-fold higher, 43 nM
- CN1CC[C@@](O)(C#Cc2cccc(-c3cc(C(F)F)c4ncnc(N)c4n3)c2)C1=O [Example 289, (R)-3-((3-(4-Amino-8-(difluoromethyl)pyrido[3,2-d]pyrimidin-6-yl)phenyl)ethynyl)-3-hydroxy-1-methylpyrrolidin-2-one] — within 1.5-fold, 1.4 nM
- Cc1ccc(C#C[C@@]2(O)C(=O)N(C)[C@@H]3C[C@@H]32)cc1-c1nc2c(N)ncnc2s1 [Example 318, (1R,4R,5S)-4-((3-(7-Aminothiazolo[5,4-d]pyrimidin-2-yl)-4-methylphenyl)ethynyl)-4-hydroxy-2-methyl-2-azabicyclo[3.1.0]hexan-3-one] — 1.5-fold lower, 1 nM
- CN1CC[C@@](O)(C#Cc2cccc(-c3cc(N4CC(C(F)(F)F)C4)c4ncnc(N)c4n3)c2)C1=O [Example 315, (R)-3-[2-[3-[4-Amino-8-[3-(trifluoromethyl)azetidin-1-yl]pyrido[3,2-d]pyrimidin-6-yl]phenyl]ethynyl]-3-hydroxy-1-methyl-pyrrolidin-2-one] — 3.3-fold higher, 5 nM
- Nc1nccc2cnc(-c3cccc(C#CC4(O)CCc5cccnc54)c3)nc12 (stereo in doubt) [Example 46, (S)-7-[2-[3-(8-Aminopyrido[3,4-d]pyrimidin-2-yl)phenyl]ethynyl]-5,6-dihydrocyclopenta[b]pyridin-7-ol] — 1400-fold higher, 2030 nM
